Measurements as given in patent US9346793B2, “Hydroxylated aminotriazole derivatives as ALX receptor agonists” (Actelion Pharmaceuticals, LTD., priority 2010, dated 2016).

Target: recombinant human ALX receptor (HEK293-hALXR-Gα16 cells) (Homo sapiens (Human), UniProt P25090)
Assay: Intracellular calcium measurements (FLIPR), ALX receptor agonistic activity
Format: cell-based
Conditions: normalized to 10 nM WKYMVm, read-out: EC50 (agonistic activity with respect to the ALX receptor)
Protocol: The ALX receptor agonistic activity of the compounds of formula (I) is determined in accordance with the following experimental method.
Intracellular Calcium Measurements:
Cells expressing recombinant human ALX receptor and the G-protein Gα16 (HEK293-hALXR-Gα16) were grown to 80% confluency in Growing Medium (GM). Cells were detached from culture dishes with a cell dissociation buffer (Invitrogen, 13151-014), and collected by centrifugation at 1,000 rpm at rt for 5 min in Assay Buffer (AB) (equal parts of Hank's BSS (Gibco, 14065-049) and DMEM without Phenol Red (Gibco, 11880-028)). After 60 min incubation at 37° C. under 5% CO2 in AB supplemented with 1 μM Fluo-4 (AM) (Invitrogen, F14202) and 20 mM HEPES (Gibco, 15630-056), the cells were washed and resuspended in AB. They were then seeded onto 384-well FLIPR assay plates (Greiner, 781091) at 50,000 cells in 70 μl per well and sedimented by centrifugation at 1,000 rpm for 1 min. Stock solutions of test compounds were made up at a concentration of 10 mM in DMSO, and serially diluted in AB to concentrations required for activation dose response curves. WKYMVm (Phoenix Peptides) was used as a reference agonist. A FLIPR Tetra instrument (Molecular Devices) was operated according to the manufacturers standard instructions, adding 4 μl of test compound dissolved at 10 mM in DMSO and diluted prior to the experiment in assay buffer to obtain the desired final concentration. Changes in fluorescence were monitored before and after the addition of test compounds at lex=488 nm and lem=540 nm. Emission peak values above base level after compounds addition were exported after base line subtraction. Values were normalized to high-level control (WKYMVm compound, 10 nM final concentration) after subtraction of the base line value (AB addition).

Chain of recombinant human ALX receptor (HEK293-hALXR-Gα16 cells) (P25090 whole entry): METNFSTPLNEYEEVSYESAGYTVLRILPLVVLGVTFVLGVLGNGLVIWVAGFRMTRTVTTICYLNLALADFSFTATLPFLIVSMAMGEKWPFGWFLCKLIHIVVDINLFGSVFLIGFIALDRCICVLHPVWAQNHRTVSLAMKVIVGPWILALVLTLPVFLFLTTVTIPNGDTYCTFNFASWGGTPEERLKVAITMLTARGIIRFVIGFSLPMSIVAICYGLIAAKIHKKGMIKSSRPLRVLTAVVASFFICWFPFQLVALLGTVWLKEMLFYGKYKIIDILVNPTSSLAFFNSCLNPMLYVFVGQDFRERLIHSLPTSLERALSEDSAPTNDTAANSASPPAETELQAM

SMILES	EC50 [nM]
Cc1cccc(-c2oc(C)nc2C(=O)Nc2cnn(Cc3nc(C(C)(C)O)co3)n2)c1 [Example 1, 2-Methyl-5-m-tolyl-oxazole-4-carboxylic acid {2-[4-(1-hydroxy-1-methyl-ethyl)-oxazol-2-ylmethyl]-2H-[1,2,3]triazol-4-yl}-amide]	11.8
Cc1cccc(-c2oc(C)nc2C(=O)Nc2cnn(Cc3nc(C4(O)CC4)co3)n2)c1 [Example 2, 2-Methyl-5-m-tolyl-oxazole-4-carboxylic acid {2-[4-(1-hydroxy-cyclopropyl)-oxazol-2-ylmethyl]-2H-[1,2,3]triazol-4-yl}-amide]	7.6
CC(C)(O)c1coc(Cn2ncc(NC(=O)c3ncoc3-c3ccccc3)n2)n1 [Example 3, 5-Phenyl-oxazole-4-carboxylic acid {2-[4-(1-hydroxy-1-methyl-ethyl)-oxazol-2-ylmethyl]-2H-[1,2,3]triazol-4-yl}-amide]	8
CC(C)(O)c1coc(Cn2ncc(NC(=O)c3ncoc3-c3ccc(F)cc3)n2)n1 [Example 4, 5-(4-Fluoro-phenyl)-oxazole-4-carboxylic acid {2-[4-(1-hydroxy-1-methyl-ethyl)-oxazol-2-ylmethyl]-2H-[1,2,3]triazol-4-yl}-amide]	51
Cc1nc(C(=O)Nc2cnn(Cc3nc(C(C)(C)O)co3)n2)c(-c2cccc(C(F)(F)F)c2)o1 [Example 5, 2-Methyl-5-(3-trifluoromethyl-phenyl)-oxazole-4-carboxylic acid {2-[4-(1-hydroxy-1-methyl-ethyl)-oxazol-2-ylmethyl]-2H-[1,2,3]triazol-4-yl}-amide]	21.7
COc1cccc(-c2oc(C)nc2C(=O)Nc2cnn(Cc3nc(C(C)(C)O)co3)n2)c1 [Example 6, 5-(3-Methoxy-phenyl)-2-methyl-oxazole-4-carboxylic acid {2-[4-(1-hydroxy-1-methyl-ethyl)-oxazol-2-ylmethyl]-2H-[1,2,3]triazol-4-yl}-amide]	12.7
Cc1nc(C(=O)Nc2cnn(Cc3nc(C(C)(C)O)co3)n2)c(-c2cccc(Cl)c2)o1 [Example 7, 5-(3-Chloro-phenyl)-2-methyl-oxazole-4-carboxylic acid {2-[4-(1-hydroxy-1-methyl-ethyl)-oxazol-2-ylmethyl]-2H-[1,2,3]triazol-4-yl}-amide]	10.1
CC(C)(O)c1coc(Cn2ncc(NC(=O)c3ncoc3-c3cccc(Cl)c3)n2)n1 [Example 8, 5-(3-Chloro-phenyl)-oxazole-4-carboxylic acid {2-[4-(1-hydroxy-1-methyl-ethyl)-oxazol-2-ylmethyl]-2H-[1,2,3]triazol-4-yl}-amide]	17.8

Results, then the compound that gave them:

EC50 [nM]	SMILES
17.2	COc1cccc(-c2ocnc2C(=O)Nc2cnn(Cc3nc(C(C)(C)O)co3)n2)c1 [Example 9, 5-(3-Methoxy-phenyl)-oxazole-4-carboxylic acid {2-[4-(1-hydroxy-1-methyl-ethyl)-oxazol-2-ylmethyl]-2H-[1,2,3]triazol-4-yl}-amide]
10.3	Cc1nc(C(=O)Nc2cnn(Cc3nc(C(C)(C)O)co3)n2)c(-c2ccccc2)o1 [Example 10, 2-Methyl-5-phenyl-oxazole-4-carboxylic acid {2-[4-(1-hydroxy-1-methyl-ethyl)-oxazol-2-ylmethyl]-2H-[1,2,3]triazol-4-yl}-amide]
82.3	CC(C)(O)c1coc(Cn2ncc(NC(=O)c3ncsc3-c3cccc(F)c3)n2)n1 [Example 11, 5-(3-Fluoro-phenyl)-thiazole-4-carboxylic acid {2-[4-(1-hydroxy-1-methyl-ethyl)-oxazol-2-ylmethyl]-2H-[1,2,3]triazol-4-yl}-amide]
32.3	Cc1nc(C(=O)Nc2cnn(Cc3nc(C(C)(C)O)co3)n2)c(-c2cccc(OC(F)(F)F)c2)o1 [Example 12, 2-Methyl-5-(3-trifluoromethoxy-phenyl)-oxazole-4-carboxylic acid {2-[4-(1-hydroxy-1-methyl-ethyl)-oxazol-2-ylmethyl]-2H-[1,2,3]triazol-4-yl}-amide]
13.2	Cc1nc(C(=O)Nc2cnn(Cc3nc(C(C)(C)O)co3)n2)c(-c2cccc(F)c2)o1 [Example 13, 5-(3-Fluoro-phenyl)-2-methyl-oxazole-4-carboxylic acid {2-[4-(1-hydroxy-1-methyl-ethyl)-oxazol-2-ylmethyl]-2H-[1,2,3]triazol-4-yl}-amide]
11.3	Cc1cccc(-c2ocnc2C(=O)Nc2cnn(Cc3nc(C(C)(C)O)co3)n2)c1 [Example 14, 5-m-Tolyl-oxazole-4-carboxylic acid {2-[4-(1-hydroxy-1-methyl-ethyl)-oxazol-2-ylmethyl]-2H-[1,2,3]triazol-4-yl}-amide]
52.9	Cc1cccc(-c2oc(C3CC3)nc2C(=O)Nc2cnn(Cc3nc(C(C)(C)O)co3)n2)c1 [Example 15, 2-Cyclopropyl-5-m-tolyl-oxazole-4-carboxylic acid {2-[4-(1-hydroxy-1-methyl-ethyl)-oxazol-2-ylmethyl]-2H-[1,2,3]triazol-4-yl}-amide]
245	Cc1cccc(-c2oc(C)nc2C(=O)Nc2cnn(Cc3nc(C(C)(C)O)cs3)n2)c1 [N-(2-((4-(2-Hydroxypropan-2-yl)thiazol-2-yl)methyl)-2H-1,2,3-triazol-4-yl)-2-methyl-5-(m-tolyl)oxazole-4-carboxamide, reference compound]
